Laboratory results taken from patent US5279824A, “Pharmaceutical formulation containing heparin and endo-beta-glucuronidase, useful for the treatment of thrombosis” (Merck Patent GmbH, priority 1988, dated 1994).
Blank lines part the entries; values can stand above or below the substance they belong to.

How the values were obtained:
leech hyaluronidase [1] = test: Leech hyaluronidase activity in the presence of tPA with and without heparin; type: biochemical; conditions: tPA range of concentrations; presence or absence of heparin 200 USP/ml; FIG. 5
Protocol: (§1) Leech hyaluronidase (68 IU/ml was preincubated for one hour at 25° C. in the presence of concentrations of heparin (0-2500 USP/1 ml) in 20 mM methanesulphonic acid (MES), 0.1M NaCl, pH 5.0 buffer and then added to hyaluronic acid (5 mg/ml) and the incubation continued for one hour at 37° C. The generation of reducing sugars was determined by terminating the reactions by the addition of 1:1 3,5-dinitrosalicylic acid reagent (100 ml: 5% w/v dinitrosalicylic acid in 2M NaOH plus 250 ml: 60% w/v sodium potassium tartrate in water, made up to 500 ml with water) and heating for 5 min in vigorously boiling water. After heating, assay tubes were rapidly cooled to ambient temperature and absorbances at 540 nm measured spectrophotometrically. Suitable blanks and no-enzyme controls were included in the assay. The results are expressed as a percentage of the absorbances obtained in control incubations containing no heparin.
A) Leech hyaluronidase (68 IU/ml) was mixed with and without heparin (200 USP/ml) and human tissue plasminogen activator (tPA) in a range of concentrations ([…]) and with hyaluronic acid (5 mg/ml) and incubated for 1 h at 37° C. Reducing sugars were determined (Example 1) and results expressed as a percentage of controls containing no tPA.

leech hyaluronidase [2] = test: Reducing sugar assay of leech hyaluronidase preincubated with heparin; type: biochemical; conditions: heparin up to 2500 USP/ml; preincubated one hour at 25° C.; enzyme 68 IU/ml; FIG. 1
Protocol: as §1

[3] = tested on: mammalian testicular hyaluronidase; test: Reducing sugar assay of mammalian testicular hyaluronidase preincubated with heparin; type: biochemical; conditions: heparin above 3 USP/ml; MTH 75 IU/ml; preincubated one hour at 25° C.
Protocol: as §1, with “heparin. […] MTH (75 IU/ml) was preincubated for one hour at 25° C. with heparin (0 to 250 USP/ml) in 20 mM MES, 0.1M NaCl pH 5.0, buffer and then added (1:10 final dilution) to hyaluronate and incubated for a further one hour at 37° C. Activity was determined using the reducing sugar assay (described above) and is expressed as a percentage of controls without heparin. […]” for “heparin.”

whole blood = test: Whole blood clotting time after incubation of heparin with or without leech hyaluronidase
Protocol: Heparin (0-150 USP/ml) was incubated for one hour at […] either with or without leech hyaluronidase (50 IU/ml) and in 20 mM MES, 0.1M NaCl, pH 5.0 buffer; then whole blood was added to determine the effect on clottability.

Rats = test: Indian ink spreading after subcutaneous injection in rats; type: in vivo, rat; conditions: heparin 250 to 2500 USP/ml with leech hyaluronidase
Protocol: Leech hyaluronidase (100 IU/ml) was mixed 1:1 with Indian ink in 20 mM MES, 0.1M NaCl pH 5.0, buffer in the presence or absence of heparin (250 to 2500 USP/ml). Rats were injected subcutaneously with 50 microlitres of this mixture and spreading allowed to occur over a period of 1 to 3 hours. The rats were sacrificed and the skin removed for observation of the area of spreading.

leech hyaluronidase [4] = test: Leech hyaluronidase activity with heparin, with and without hementin; type: biochemical; conditions: 60 min
Protocol: as §1
B) Leech hyaluronidase (75 IU/ml) was mixed with and without hementin (180 IU/ml) (where IU is defined as one microgram of fibrinogen incoagulated/min/37° C.) end incubated with heparin (1.5-1500 USP/ml) for one hour at 25° C. prior to addition to hyaluronic acid (2 mg/ml) and further incubation for one hour at 37° C. Reducing sugar levels were determined (see Example 1) and the results expressed as a percentage of controls containing no heparin. (Table 3).

[5] = Clotting time of patient plasma before and after heparinisation; type: in vivo, human; conditions: patient plasma after heparinisation with 30,000 USP/24 h; 40 seconds before
Protocol: B) Leech hyaluronidase (200 IU/ml) was preincubated for one hour at 25° C. with and without plasma and heparinised plasma in 20 mM MES, 0.1M NaCl, pH 5.0 buffer. Plasma was obtained from a patient before and after heparinisation with 30,000 USP/24 h resulting in an increase in the clotting time of 40 seconds to 80 seconds. Incubations were continued by addition to hyaluronic acid (see section A, above) and reducing sugars determined as above (Example 1).

[6] = tested on: mammalian testicular hyaluronidase; conditions: Mathews & Dorfman, Physiological Review, 35; cited from earlier work

Substance: tPA: human tissue plasminogen activator, a clot-lytic agent
leech hyaluronidase activity, percentage of controls containing no tPA (leech hyaluronidase [1]): no effect

leech hyaluronidase activity, percentage of control incubations containing no heparin (leech hyaluronidase [2]): no significant effect
mammalian testicular hyaluronidase activity, percentage of controls without heparin [3]: completely inhibited
leech hyaluronidase activity, % Control (no heparin) (leech hyaluronidase [4]; Heparin 1.5 USP/ml, With Hementin (180 IU/ml)): 103%
leech hyaluronidase activity, % Control (no heparin) (leech hyaluronidase [4]; Heparin 1.5 USP/ml, Without Hementin): 97.5%
leech hyaluronidase activity, % Control (no heparin) (leech hyaluronidase [4]; Heparin 15 USP/ml, With Hementin (180 IU/ml)): 93.8%
leech hyaluronidase activity, % Control (no heparin) (leech hyaluronidase [4]; Heparin 15 USP/ml, Without Hementin): 100%
leech hyaluronidase activity, % Control (no heparin) (leech hyaluronidase [4]; Heparin 150 USP/ml, With Hementin (180 IU/ml)): 100%
leech hyaluronidase activity, % Control (no heparin) (leech hyaluronidase [4]; Heparin 150 USP/ml, Without Hementin): 103%
leech hyaluronidase activity, % Control (no heparin) (leech hyaluronidase [4]; Heparin 1500 USP/ml, With Hementin (180 IU/ml)): 109%
leech hyaluronidase activity, % Control (no heparin) (leech hyaluronidase [4]; Heparin 1500 USP/ml, Without Hementin): 103%
Substance: Heparin
Whole Blood Clotting Time (whole blood; Heparin 1.0 USP/ml, Leech Enzyme (50IU/ml)): 14.5 min
Whole Blood Clotting Time (whole blood; Heparin 1.0 USP/ml, without leech enzyme): 14.5 min
Whole Blood Clotting Time (whole blood; Heparin 2.5 USP/ml, Leech Enzyme (50IU/ml)): 24.5 min
Whole Blood Clotting Time (whole blood; Heparin 2.5 USP/ml, without leech enzyme): 24.0 min
Whole Blood Clotting Time (whole blood; Heparin 5 USP/ml, Leech Enzyme (50IU/ml)): NC (no clot formation before 20 minutes at 37° C.)
Whole Blood Clotting Time (whole blood; Heparin 5 USP/ml, without leech enzyme): NC (no clot formation before 20 minutes at 37° C.)
Whole Blood Clotting Time (whole blood; Heparin 10 USP/ml, Leech Enzyme (50IU/ml)): NC (no clot formation before 20 minutes at 37° C.)
Whole Blood Clotting Time (whole blood; Heparin 10 USP/ml, without leech enzyme): NC (no clot formation before 20 minutes at 37° C.)
Whole Blood Clotting Time (whole blood; Heparin 20 USP/ml, Leech Enzyme (50IU/ml)): NC (no clot formation before 20 minutes at 37° C.)
Whole Blood Clotting Time (whole blood; Heparin 20 USP/ml, without leech enzyme): NC (no clot formation before 20 minutes at 37° C.)
effect of heparin on enzyme-induced ink spreading (Rats): not significantly affected
clotting time [5]: 80 s
inhibition of mammalian testicular hyaluronidase by heparin [6]: inhibited competitively
